Key:
[1] = Adverse events during the observation period (12 hours after ticagrelor LD); format: in vivo, human (patients with myocardial infarction)
Text: Between November 2015 and January 2017, a total of 73 consecutive AMI patients (49 STEMI and 24 NSTEMI) were enrolled. The recruitment continued until the minimum required number of patients were enrolled in the less numerous group (NSTEMI). There were no differences in the baseline characteristics between the two groups, except higher mean left ventricle ejection fraction seen in NSTEMI patients at discharge (Table 1). Of note, as expected numerically greater proportion of STEMI patients were treated with morphine, but this difference was statistically insignificant. Adverse events during the observation period (12 hours after ticagrelor LD) were sporadic and mild (STEMI vs. NSTEMI: Thrombolysis in Myocardial Infarction minimal bleeding 6.1% vs. 8.3%, p = 0.92; dyspnea 2.0% vs. 4.2%, p = 0.83; vomiting 4.1% vs. 4.2%, p = 0.56). […]
Ludwika Rydygiera w Bydgoszczy (study
PLATO trial, deﬁnite or probable stent thrombosis approval reference number: KB 617/2015). […]
Thrombolysis In Myocardial Infarction (TIMI) criteria, still being collected, currently no additional data are available besides given in dyspnoea adverse events according to criteria used in the submitted study protocol. […]
Postepy […]
trial is expected to be the ﬁrst study to elucidateKardiol Interwencyjnej 2015;11:259–80. whether STEMI is associated with poorer absorption and 8. Navarese EP, Buffon A, Kozinski M, et al. A critical overview on ticagrelor in acute coronary syndromes. QJM 2013;106:105–15. subsequently weaker antiplatelet action of ticagrelor in 9. Adamski P, Koziński M, Ostrowska M, et al. Overview of pleiotropic comparison with NSTEMI. effects of platelet P2Y12 receptor inhibitors. Thromb Haemost […]
1Department of Principles of Clinical Medicine, Collegium Medicum, Nicolaus Drug Metab Dispos 2010;38:1514–21.
Copernicus University, Bydgoszcz, Poland 11. Husted S, Emanuelsson H, Heptinstall S, et al. Pharmacodynamics, 2Department of Pharmacology and Therapy, Collegium Medicum, Nicolaus pharmacokinetics, and safety of the oral reversible P2Y12 antagonist AZD6140 with aspirin in patients with atherosclerosis: a double-blind
Copernicus University, Bydgoszcz, Poland comparison to clopidogrel with aspirin. Eur Heart J 3Department of Cardiology and Internal Medicine, Collegium Medicum, 2006;27:1038–47.
Nicolaus Copernicus University, Bydgoszcz, Poland 12. Varenhorst C, Eriksson N, Johansson Å, et al. Effect of genetic 4Department of Theoretical Foundations of Biomedical Science and Medical variations on ticagrelor plasma levels and clinical outcomes.
Informatics, Collegium Medicum, Nicolaus Copernicus University, Bydgoszcz, Eur Heart J 2015;36:1901–12.
Poland 13. Teng R, Mitchell P, Butler K. Effect of age and gender on 5Department of Laboratory Medicine, Collegium Medicum, Nicolaus pharmacokinetics and pharmacodynamics of a single ticagrelor dose in healthy individuals. Eur J Clin Pharmacol 2012;68:1175–82.
Copernicus University, Bydgoszcz, Poland 14. Teng R, Mitchell PD, Butler K. Lack of significant food effect on the 6Department of Medicinal Chemistry, Collegium Medicum, Nicolaus pharmacokinetics of ticagrelor in healthy volunteers. J Clin Pharm Copernicus University, Bydgoszcz, Poland Ther 2012;37:4648.– […]

[2] = tested on: platelet inhibition; design: method as in earlier work; conditions: 2 hours after ticagrelor LD; ref 18 20 25 (of the protocol); cited from earlier work

For `CCCSc1nc(N[C@@H]2C[C@H]2c2ccc(F)c(F)c2)c2nnn([C@@H]3C[C@H](OCCO)[C@@H](O)[C@H]3O)c2n1` [ticagrelor], which “Thrombolysis in Myocardial Infarction minimal bleeding” value ([1]; NSTEMI patients) is on record?
Its value is 8.3%.

What about the dyspnea ([1]; NSTEMI patients) of the same compound?
The dyspnea was 4.2%.

And the vomiting ([1]; NSTEMI patients)?
The vomiting was 4.2%.

What about the “Thrombolysis in Myocardial Infarction minimal bleeding” value ([1]; STEMI patients) of the same compound?
The value was 6.1%.

And the dyspnea ([1]; STEMI patients)?
The dyspnea was 2.0%.

And the vomiting ([1]; STEMI patients)?
Its vomiting is 4.1%.

What about the “patients with STEMI with inadequate platelet inhibition” value [2] of the same compound?
The value was no more than 60%.

Reference: PMC5638327, “Comparison of bioavailability and antiplatelet action of ticagrelor in patients with ST-elevation myocardial infarction and non-ST-elevation myocardial infarction: A prospective, observational, single-centre study” (PLoS ONE, 2017)
